Series [1] has as its system core clock genes Per2, Bmal1, Cry2 in liver. The series can be described thus: Four day study, liver core clock gene mRNA in ICR mice. The format is in vivo, mouse. The note with it: 50 mg/kg PO BID 4 days. The protocol: Male ICR mice (weighing 30-35 g), obtained from Charles River Laboratories (Hollister, Calif.), were used for the experiment following at least 3 days of acclimation. Mice were dosed with vehicle (WFI or 10% Kolliphor) or compound (50 mg/kg, dose volume 5 mL/kg, PO) for 4 days BID (twice a day), beginning in the afternoon of the first day. The last dose of compound or vehicle was administered on the morning of harvest. On the day of harvest (6 hours following the final dose), mice were euthanized by CO2 asphyxiation and 50 mg of liver tissue was excised and placed in a tube containing 500 μl of RNA later.
E.Z.N.A.® HP Total RNA Isolation Kits (R6812-01 and the protocol described in the Manual, Revised 2010) were utilized to prepare and isolate RNA from the liver samples. To prepare the RNA samples, 10-30 mg of sample was removed from RNA-Later and placed in a 1.5 ml microfuge tube. GTC lysis buffer (700 μl) was added to the tissue, which was homogenized with a rotor-stator homogenizer (e.g. Tissue-Tearor, Model #985370 BioSpec Products with 4.5 mm probe, Cat. #985370-04), and then centrifuged at full speed (≥13,000×g) for 5 minutes. The cleared supernatant was transferred by pipetting to a DNA Clearance Column Pre-inserted in a 2 mL Collection Tube. The assembled column was centrifuged at 13,000×g for 1 minute, and the flow-through was saved. An equal volume (700 μl) of 70% ethanol was added to the lysate and mixed. The sample was then applied to a HiBind RNA spin column placed into a 2 ml collection tube, which was centrifuged at 10,000×g for 60 seconds at room temperature. RNA Wash Buffer I (250 μl) was added by pipetting directly onto a new HiBind RNA column inserted in a 2 ml collection tube. The assembled column was centrifuged at 10,000×g for 60 seconds. The RNA column was placed into a new 2 ml collection tube. DNase I stock solution is pipetted (75 μl) directly onto the surface of the HiBind RNA resin in each column (Using DNAse Digestion with RNase Free DNase Set (E1091): for each HiBind RNA column, the DNase I stock solution was prepared as followed: E.Z.N.A.® DNase I Digestion Buffer 73.5 μl, RNase Free DNase I (20 Kunitz/μl) 1.5 μl=Total Volume 75 μl). The column with bound RNA was incubated at room temperature (25-30° C.) for 15 minutes. RNA Wash Buffer I (500 μl) was added to the column and placed on a bench top for 2 minutes. After centrifuging at 10,000×g for 60 seconds, discarding the flow-through, 500 μl of RNA Wash Buffer II was added and centrifuged at 10,000×g for 60 seconds. Another 500 μl of RNA Wash Buffer II was added and the column assembly was centrifuged at 10,000×g for 60 seconds. The column was centrifuged for 2 minutes at maximum speed to completely dry the HiBind matrix. The column was placed in a clean 1.5 ml microcentrifuge tube and 40-70 μl of molecular biology grade water is added. After sitting for 1 minute, the column was centrifuged for 2 minutes at maximum speed to elute the RNA. The isolated RNA was collected into the collection tube.
RediPlate 96 RiboGreen RNA Quantification Kit (Invitrogen) RediPlate standard curve was prepared by transferring 20 l reconstituted RNA standard to a RediPlate well reconstituted in 180 l RediPlate TE buffer. For liver RNAs prepared from 30-100 mg of tissue using a kit similar to the Omega Bio-Tek HP Total RNA Kit and eluted in RNAse-free water in a volume of 50 l (microliters), 5 l of the total RNA is diluted in 195 l of RediPlate TE buffer (1:40 dilution of RNA), mix. After transferring 5 l to RediPlate well reconstituted in 195 l TE buffer and incubating 10 min. at RT, Fluorescence Intensity of wells with standards and samples were read in a Tecan M200 with Excitation set at 480 nm and Emission set at 520 nm with the gain set to ˜70%. Alternatively, one can use the FlexStation 3 with Ex 488 nm and Em 525 nm and a Cutoff of 515 nm.

Another series concerns C57/Bl6J DIO mice. Description: Compound 72 in diet-induced obesity (DIO) mouse model. The format is in vivo. The conditions noted are these: 100 mg/kg PO QD 7 days. The source says: Male C57/Bl6J DIO mice were obtained from The Jackson Laboratory (Sacramento, Calif.). […] Animals were accustomed to these conditions for at least 2 weeks before experimentation and used at approximately 24 weeks of age.
Significance was accepted when p<0.05.

Series [2] can be described thus: Pharmacokinetic analysis in ICR mice. The format is in vivo. The note with it: mouse, 50 mg/kg P.O. The method, then: Male ICR mice (weighing 30-40 g, Charles River Laboratories) were used for the experiment with n=3 mice for each experimental group (27 mice total for the study). […] Blood and liver tissue were collected at the following time points after administration: 15, 30, 60, 90 minutes, 3, 6, 12 and 24 hours. A control group of animals (TO) was also sampled. Animals were euthanized with C02 and the blood collected from the heart using cardiac puncture, transferred to an EDTA tube, and then centrifuged at 5400 rpm for 5 minutes at 4° C. The resultant plasma was frozen using dry ice and then stored at −80° C. until ready for assay. Liver tissue was removed from each animal, 0.5 g was collected in an eppendorff, frozen and submitted for pharmacokinetic measurement. […] Raw data was analyzed using WinNonLin for PK parameters (Cmax, Tmax, elimination t^1/2, MRT (mean residence time), AUC (area under the curve)−(0-last and % extrapolated).

The structures appear in SMILES notation.

For the compound `O=C1NCCN1CC(O)Cn1c2ccc(F)cc2c2cc(F)ccc21` (centres unmarked) [Compound 72, 1-(3-(3,6-difluoro-9H-carbazol-9-yl)-2-hydroxypropyl)imidazolidin-2-one], in series [1] (ZT6), the “liver Per2 expression” value is “suppression”. Moreover, in series [1] (liver), the Cry2 transcripts entry is on record as “decrease” and the “increase in Bmal1 mRNA at ZT6” value is given as 4 fold. In the series on C57/Bl6J DIO mice, the OGTT glucose course result was “much lower than the vehicle control group” and the “glucose AUC from OGTT” value is 17055+/−769.1 units. Besides, in series [2] (liver), the “% AUC extrapolated” value is 0.85% and the “Tmax (hr)” value is 0.25 − hr. The “Tmax (hr)” value in series [2] (plasma) is on record as 0.25 − hr.
